Results on two substances are retold here after patent publication US12508246B2, “Uses of complex of angiotensin II receptor antagonist metabolite and NEP inhibitor in treating heart failure” (SHENZHEN SALUBRIS PHARMACEUTICALS CO. LTD, priority 2019, dated 2025).

Assay [1] deals with dogs with heart failure (reduced ejection fraction). Description: Pharmacodynamic study in the canine chronic heart failure model-reduced ejection fraction (LAD ligation, echocardiography). The note with it: HFrEF dog model; 100 mpk (mix: EXP3174 52 mpk + sacubitril 48 mpk) p.o. qd, from 3 d after modeling for 6 weeks; Mean ± SD; model 35.82, sham 66.20. The assay is classed as in vivo. How it is done:
4.1 Methods: After the animals arrived at the facility, they were on adaptive feeding, and randomized after echocardiography and ECG, and then the experiment was started. On the day of operation, animals were anesthetized by intramuscular injection of Zoletil (5 mg/kg). The trachea of the anesthetized dogs were connected to the ventilator, and then they were fixed in a supine position, their chest was opened between the third and fourth ribs, the left anterior descending coronary artery was ligated to close the thoracic cavity, and then the skin was sutured. After the animals recovered for 3 days after operation, they were given therapeutic drugs by gavage, once a day for […] consecutive weeks. During the experiment, animal's living conditions were observed every day, and their abnormal conditions were recorded. After 42 days of dosing, echocardiography was performed.
4.2 Modeling: On the day before operation, the animals were fasted overnight. On the day of operation, the animals were intramuscularly injected with Zoletil (dose: 5 mg/kg) to induce anesthesia, and also were intramuscularly administered with atropine sulfate injection (dose: 0.5 mg/dog). After the animals were anesthetized, their hair on the left chest was shaved clean. […]

Assay [2] concerns dogs with heart failure (preserved ejection fraction). The assay is described as follows: Pharmacodynamic study in the canine chronic heart failure model-preserved ejection fraction (LAD ligation, echocardiography). Type of assay: in vivo. The note with it: HFpEF dog model; 100 mpk (mix: EXP3174 52 mpk + sacubitril 48 mpk) p.o. qd, from 3 d after modeling for 2 weeks; Mean ± SD; model 51.80, sham 68.15. On the procedure:
5.1 Methods: After the animals arrived at the facility, they were on adaptive feeding, and randomized after echocardiography and ECG, and then the experiment was started. On the day of operation, animals were anesthetized by intramuscular injection of Zoletil (5 mg/kg). The tracheae of the anesthetized dogs were connected to the ventilator, and then they were fixed in a supine position; their chests were opened between the third and fourth ribs, the left anterior descending coronary artery was ligated to close the thoracic cavity, and then the skin was sutured. After the animals recovered for 3 days after operation, they were given therapeutic drugs by gavage, once a day for two consecutive weeks. During the experiment, the animals' living conditions were observed every day, and their abnormal conditions were recorded. After 14 days of dosing, echocardiography was performed.
5.2 Modeling: On the day before operation, the animals were fasted overnight. On the day of operation, the animals were intramuscularly injected with Zoletil (dose: 5 mg/kg) to induce anesthesia, and also were intramuscularly administered with atropine sulfate injection (dose: 0.5 mg/dog). After the animals were anesthetized, their hair on the left chest was shaved clean. […]

“And” between values parts separate entries of the source, which are not always exact repeats. Equal values may be shown once. Marks after values point to notes of the source that are not given here.

Regarding “(EXP3174·AHU377)^3−·1.5 Ca^2+·2H2O [Complex of the invention]”, the “endpoint left ventricular ejection fraction LVEF (%)” value in assay [1] is on record as 51.87 ± 1.01***^@$ %; in assay [2] it was 58.04 ± 1.29***^@ %.
“Valsartan-Sacubitril sodium salt complex [LCZ696]”: the “endpoint left ventricular ejection fraction LVEF (%)” value in assay [1] was 46.45% and 46.45 ± 3.39 %; in assay [2] it was 57.98% and 57.98 ± 2.64 %.
